Test results published in patent US12084419B2, “Cell metabolism modulating compounds and uses thereof” (CRESCENTA BIOSCIENCES, priority 2020, dated 2024).

Biological target: T1, His6 tagged human recombinant FABP4 (Homo sapiens, UniProt P15090)
T1 construct: purchased Cayman Chemicals 10009549
Assay: FABP4 TR-FRET assay: displacement of BODIPY FL C12 fatty acid
Settings: triplicates, inhibition of BODIPY FL C12 binding
Text: Activity of compounds with FABP4 was profiled using a Terbium (Tb) based time resolved fluorescence energy transfer (TR-FRET) assay. The assay measures the compound mediated displacement of the fluorescent fatty acid BODIPY FL C12 (Thermo Fisher; catalog number D3822) from His6 tagged human recombinant FABP4 (His6-FABP4; Cayman Chemicals, catalog number 10009549) via recording the energy transfer from TB donor molecule on anti-His6-tag antibody to acceptor BODIPY moiety. Briefly, compounds were prepared at a concentration of 0.362 mM and 0.0362 mM, and BODIPY FL C12 was prepared at 4.2 μM, in DMSO. 1.2 μL of each compound or DMSO (vehicle control) and 1.2 μL of BODIPY FL C12 were added into the wells of a 384-well black polypropylene plate. His6-FABP4 and Tb anti-His6 antibody were prepared in the assay buffer (25 mM Tris/HCl, pH 7.4, 0.4 mg/ml y-globulins, 0.010% NP-40, 1 mM DTT) at a concentration of 83 nM and 49.6 nM, respectively. The protein and antibody solutions were then mixed at a ratio of 34:7 (v/v) and incubated on ice for 30 minutes. The assay was initiated by adding 41 μL of the resulting protein/antibody solution into the wells containing the compounds and BODIPY FL C12. The plate was centrifuged and incubated at room temperature for 10 min. The TR-FRET signals were recorded using an EnVision Multilabel plate reader (PerkinElmer; TB excitation 320 nm, BODIPY FL C12 emission 520 nm; TB emission 615 nm). Relative fluorescence ratio (520 nm*10,000/615 nm) were used to calculate the compound mediated inhibition of BODIPY C12 FL fatty acid binding to FABP4. […] Glucose consumption and FABP4 inhibition is shown below in Table 3 below.

T1 sequence (P15090 whole entry): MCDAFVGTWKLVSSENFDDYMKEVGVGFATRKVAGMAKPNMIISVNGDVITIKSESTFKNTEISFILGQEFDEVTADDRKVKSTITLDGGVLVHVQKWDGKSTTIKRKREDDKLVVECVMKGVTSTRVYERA

| Structure (SMILES) | inhibition at 1 µM (1 μM compound) | inhibition at 10 µM (10 μM compound) | FABP4 inhibition (%) at 1 μM Mean (1 μM compound) | FABP4 inhibition (%) at 10 μM Mean (10 μM compound) |
| --- | --- | --- | --- | --- |
| CCCCCCC1CCCc2c(n(Cc3cncc(C#N)c3)c3c(C(=O)O)cccc23)C1 (centres unmarked) [5-[(5-cyanopyridin-3-yl)methyl]-7-hexyl-5H,6H,7H,8H,9H,10H-cyclohepta[b]indole-4-carboxylic acid] | 90.5% | 91.8% | – | – |
| CCCCCCC1CCCc2c(n(Cc3ccc(C#N)s3)c3c(C(=O)O)cccc23)C1 (centres unmarked) [5-[(5-cyanothiophen-2-yl)methyl]-7-hexyl-5H,6H,7H,8H,9H,10H-cyclohepta[b]indole-4-carboxylic acid] | 86.6% | 87.3% | 83.31% | 89.42% |
| CCCCCCC1CCCc2c(n(Cc3cccc(C(N)=O)n3)c3c(C(=O)O)cccc23)C1 (centres unmarked) [5-[(6-carbamoylpyridin-2-yl)methyl]-7-hexyl-5H,6H,7H,8H,9H,10H-cyclohepta[b]indole-4-carboxylic acid] | 94% | 95.2% | – | – |
| CCCCCCC1CCCc2c(n(Cc3cccc(C#N)n3)c3c(C(=O)O)cccc23)C1 (centres unmarked) [5-[(6-cyanopyridin-2-yl)methyl]-7-hexyl-5H,6H,7H,8H,9H,10H-cyclohepta[b]indole-4-carboxylic acid] | 93.5% | 88.1% | – | – |
| CCCCCCC1CCCc2c(n(Cc3cccc(F)n3)c3c(C(=O)O)cccc23)C1 (centres unmarked) [5-[(6-fluoropyridin-2-yl)methyl]-7-hexyl-5H,6H,7H,8H,9H,10H-cyclohepta[b]indole-4-carboxylic acid] | 86.5% | 91.8% | – | – |
| CCCCCCC1CCCc2c(n(Cc3cccc(C(=O)O)n3)c3c(C(=O)O)cccc23)C1 (centres unmarked) [6-({4-carboxy-7-hexyl-5H,6H,7H,8H,9H,10H-cyclohepta[b]indol-5-yl}methyl)pyridine-2-carboxylic acid] | 91.6% | 96.5% | – | – |
| CCCCC1CCCCc2c1n(Cc1cccc(C(N)=O)c1)c1c(C(=O)O)cccc21 (centres unmarked) [6-butyl-5-[(3-carbamoylphenyl)methyl]-5H,6H,7H,8H,9H,10H-cyclohepta[b]indole-4-carboxylic acid] | 91.4% | 95.2% | – | – |
| CCCCC1CCCCc2c1n(Cc1cccc(C#N)c1)c1c(C(=O)O)cccc21 (centres unmarked) [6-butyl-5-[(3-cyanophenyl)methyl]-5H,6H,7H,8H,9H,10H-cyclohepta[b]indole-4-carboxylic acid] | 71.3% | 85.7% | – | – |
| CCCCC1CCCc2c(n(Cc3ccccc3C(N)=O)c3c(C(=O)O)cccc23)C1 (centres unmarked) [7-butyl-5-[(2-carbamoylphenyl)methyl]-5H,6H,7H,8H,9H,10H-cyclohepta[b]indole-4-carboxylic acid] | 71.3% | 94.5% | – | – |
| CCCCC1CCCc2c(n(Cc3ccccc3C#N)c3c(C(=O)O)cccc23)C1 (centres unmarked) [7-butyl-5-[(2-cyanophenyl)methyl]-5H,6H,7H,8H,9H,10H-cyclohepta[b]indole-4-carboxylic acid] | 91.5% | 87.3% | – | – |
| CCCCC1CCCc2c(n(Cc3ccccc3F)c3c(C(=O)O)cccc23)C1 (centres unmarked) [7-butyl-5-[(2-fluorophenyl)methyl]-5H,6H,7H,8H,9H,10H-cyclohepta[b]indole-4-carboxylic acid] | 92.1% | 88.1% | – | – |
| CCCCC1CCCc2c(n(Cc3ccnc(OC)c3)c3c(C(=O)O)cccc23)C1 (centres unmarked) [7-butyl-5-[(2-methoxypyridin-4-yl)methyl]-5H,6H,7H,8H,9H,10H-cyclohepta[b]indole-4-carboxylic acid] | 83.4% | 88.2% | – | – |
| CCCCC1CCCc2c(n(Cc3ccccc3C)c3c(C(=O)O)cccc23)C1 (centres unmarked) [7-butyl-5-[(2-methylphenyl)methyl]-5H,6H,7H,8H,9H,10H-cyclohepta[b]indole-4-carboxylic acid] | 101% | 95.3% | – | – |
| CCCCC1CCCc2c(n(Cc3cccc(C(N)=O)c3)c3c(C(=O)O)cccc23)C1 (centres unmarked) [7-butyl-5-[(3-carbamoylphenyl)methyl]-5H,6H,7H,8H,9H,10H-cyclohepta[b]indole-4-carboxylic acid] | 89.4% | 117% | – | – |
| CCCCC1CCCc2c(n(Cc3cccc(C(N)=O)c3)c3c(C(=O)NCCO)cccc23)C1 (centres unmarked) [7-butyl-5-[(3-carbamoylphenyl)methyl]-N-(2-hydroxyethyl)-5H,6H,7H,8H,9H,10H-cyclohepta[b]indole-4-carboxamide] | 10.2% | – | – | – |
| CCCCC1CCCc2c(n(Cc3cccc(C(=O)O)c3)c3c(C(=O)O)cccc23)C1 (centres unmarked) [7-butyl-5-[(3-carboxyphenyl)methyl]-5H,6H,7H,8H,9H,10H-cyclohepta[b]indole-4-carboxylic acid] | 91.8% | 100% | – | – |
| CCCCC1CCCc2c(n(Cc3cccc(Cl)c3)c3c(C(=O)O)cccc23)C1 (centres unmarked) [7-butyl-5-[(3-chlorophenyl)methyl]-5H,6H,7H,8H,9H,10H-cyclohepta[b]indole-4-carboxylic acid] | 84.2% | 83% | – | – |
| CCCCC1CCCc2c(n(Cc3cccc(C#N)c3)c3c(C(=O)O)cccc23)C1 (centres unmarked) [7-butyl-5-[(3-cyanophenyl)methyl]-5H,6H,7H,8H,9H,10H-cyclohepta[b]indole-4-carboxylic acid] | 73.5% | 112% | – | – |
| CCCCC1CCCc2c(n(Cc3cccc(C#N)c3)c3c(C(=O)NCCO)cccc23)C1 (centres unmarked) [7-butyl-5-[(3-cyanophenyl)methyl]-N-(2-hydroxyethyl)-5H,6H,7H,8H,9H,10H-cyclohepta[b]indole-4-carboxamide] | 6.65% | 42.7% | – | – |
| CCCCC1CCCc2c(n(Cc3cccc(F)c3)c3c(C(=O)O)cccc23)C1 (centres unmarked) [7-butyl-5-[(3-fluorophenyl)methyl]-5H,6H,7H,8H,9H,10H-cyclohepta[b]indole-4-carboxylic acid] | 97% | 90.6% | – | – |
| CCCCC1CCCc2c(n(Cc3cccc(O)c3)c3c(C(=O)O)cccc23)C1 (centres unmarked) [7-butyl-5-[(3-hydroxyphenyl)methyl]-5H,6H,7H,8H,9H,10H-cyclohepta[b]indole-4-carboxylic acid] | 98.7% | 96.1% | – | – |
| CCCCC1CCCc2c(n(Cc3cccc(OC)c3)c3c(C(=O)O)cccc23)C1 (centres unmarked) [7-butyl-5-[(3-methoxyphenyl)methyl]-5H,6H,7H,8H,9H,10H-cyclohepta[b]indole-4-carboxylic acid] | 91.7% | 86.5% | – | – |
| CCCCC1CCCc2c(n(Cc3cccc(C)c3)c3c(C(=O)O)cccc23)C1 (centres unmarked) [7-butyl-5-[(3-methylphenyl)methyl]-5H,6H,7H,8H,9H,10H-cyclohepta[b]indole-4-carboxylic acid] | 94.8% | 91% | – | – |
| CCCCC1CCCc2c(n(Cc3ccc(C(N)=O)cc3)c3c(C(=O)O)cccc23)C1 (centres unmarked) [7-butyl-5-[(4-carbamoylphenyl)methyl]-5H,6H,7H,8H,9H,10H-cyclohepta[b]indole-4-carboxylic acid] | 92.6% | 95.5% | – | – |
| CCCCC1CCCc2c(n(Cc3ccc(C)cc3)c3c(C(=O)O)cccc23)C1 (centres unmarked) [7-butyl-5-[(4-methylphenyl)methyl]-5H,6H,7H,8H,9H,10H-cyclohepta[b]indole-4-carboxylic acid] | 106% | 92.4% | – | – |
| CCCCC1CCCc2c(n(Cc3cccnc3)c3c(C(=O)O)cccc23)C1 (centres unmarked) [7-butyl-5-[(pyridin-3-yl)methyl]-5H,6H,7H,8H,9H,10H-cyclohepta[b]indole-4-carboxylic acid] | 71.6% | 83.8% | – | – |
